Laboratory results as given in ChEMBL document CHEMBL1201862, “PubChem BioAssay data set” (2004).
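Compound exposure: 48 hours, 5 concentrations, 96-well plates. Here, GI50 denotes the concentration required for 50% inhibition of growth.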 The source made the active and inactive calls. No stated cut-off is given here; in the data, active = GI50 up to about 1.1 µM and inactive = higher.

Columns and labels:
Assay in all cases: NCI tumour cell line growth inhibition, 48 h
[1] = tested on: NCI/ADR-RES
[2] = tested on: HOP-62
[3] = tested on: SK-MEL-2
[4] = tested on: CCRF-CEM
[5] = tested on: Malme-3M
[6] = tested on: M14
[7] = tested on: RXF 393
[8] = tested on: OVCAR-4
[9] = tested on: COLO 205
[10] = tested on: U-251
[11] = tested on: EKVX
[12] = tested on: SK-MEL-5
[13] = tested on: MDA-N
[14] = tested on: UACC-62
[15] = tested on: HOP-92
[16] = tested on: NCI-H460
[17] = tested on: UACC-257
[18] = tested on: SNB-19
[19] = tested on: NCI-H23
[20] = tested on: CAKI-1
[21] = tested on: OVCAR-3
[22] = tested on: NCI-H226
[23] = tested on: PC-3
[24] = tested on: LOX IMVI
[25] = tested on: IGROV-1
[26] = tested on: SN12C
[27] = tested on: MOLT-4
[28] = tested on: DU-145
[29] = tested on: K562
[30] = tested on: SW-620
[31] = tested on: SF-295
[32] = tested on: KM12
[33] = tested on: OVCAR-8
[34] = tested on: SNB-75
[35] = tested on: HCT-116
[36] = tested on: HCC 2998
[37] = tested on: SK-OV-3
[38] = tested on: UO-31
[39] = tested on: HL-60
[40] = tested on: ACHN
[41] = tested on: OVCAR-5
[42] = tested on: Hs-578T
[43] = tested on: SF-539
[44] = tested on: TK-10
[45] = tested on: MDA-MB-435
[46] = tested on: MDA-MB-231
[47] = tested on: NCI-H522
[48] = tested on: MCF7
[49] = tested on: HCT-15
[50] = tested on: HT-29
[51] = tested on: T47D
[52] = tested on: SF-268
[53] = tested on: BT-549
[54] = tested on: A549
[55] = tested on: 786-0
[56] = tested on: RPMI-8226
[57] = tested on: SK-MEL-28
[58] = tested on: SR
[59] = tested on: A498

CC(=O)O[C@H]1[C@@H](OC(C)=O)C(C)(C)/C=C/[C@H](C)C(=O)[C@@]2(OC(C)=O)C[C@@](C)(OC(C)=O)[C@H](OC(C)=O)[C@@H]2[C@H]2OC(=O)CC[C@@]2(OC(=O)c2ccccc2)[C@@H]1OCC(C)C
GI50 [1]: 69 µM (inactive) | GI50 [2]: 6.04 µM (inactive) | GI50 [3]: > 100 µM (inactive) | GI50 [4]: 11.2 µM (inactive) | GI50 [5]: 22.9 µM (inactive) | GI50 [6]: 15.6 µM (inactive) | GI50 [7]: 46.7 µM (inactive) | GI50 [8]: 62.7 µM (inactive) | GI50 [9]: 5.15 µM (inactive) | GI50 [10]: 80.4 µM (inactive) | GI50 [11]: 87.9 µM (inactive) | GI50 [12]: 33.5 µM (inactive) | GI50 [13]: 7.11 µM (inactive) | GI50 [14]: 46.5 µM (inactive) | GI50 [15]: 0.977 µM (active) | GI50 [16]: 4.1 µM (inactive) | GI50 [17]: 85.1 µM (inactive) | GI50 [18]: > 100 µM (inactive) | GI50 [19]: 38.7 µM (inactive) | GI50 [20]: 8.73 µM (inactive) | GI50 [21]: > 100 µM (inactive) | GI50 [22]: 92 µM (inactive) | GI50 [23]: 17.5 µM (inactive) | GI50 [24]: > 100 µM (inactive) | GI50 [25]: 68.5 µM (inactive) | GI50 [26]: > 100 µM (inactive) | GI50 [27]: 4.76 µM (inactive) | GI50 [28]: 97.3 µM (inactive) | GI50 [29]: 4.51 µM (inactive) | GI50 [30]: 10.7 µM (inactive) | GI50 [31]: 3.63 µM (inactive) | GI50 [32]: 39.1 µM (inactive) | GI50 [33]: > 100 µM (inactive) | GI50 [34]: 17.8 µM (inactive) | GI50 [35]: 19.5 µM (inactive) | GI50 [36]: 19.5 µM (inactive) | GI50 [37]: > 100 µM (inactive) | GI50 [38]: 22.2 µM (inactive) | GI50 [39]: 4.11 µM (inactive) | GI50 [40]: 15.6 µM (inactive) | GI50 [41]: > 100 µM (inactive) | GI50 [42]: 11.2 µM (inactive) | GI50 [43]: 5.47 µM (inactive) | GI50 [44]: 3.61 µM (inactive) | GI50 [45]: 8.39 µM (inactive) | GI50 [46]: > 100 µM (inactive) | GI50 [47]: 32.4 µM (inactive) | GI50 [48]: 37 µM (inactive) | GI50 [49]: > 100 µM | GI50 [50]: 13.5 µM (inactive) | GI50 [51]: 58.5 µM (inactive) | GI50 [52]: > 100 µM (inactive) | GI50 [53]: 67.6 µM (inactive)

CCOC(=O)c1c(C)n(Cc2ccccc2)c2c1cc(O)c1[nH]c3c(c12)CCCC3
GI50 [54]: 6.52 µM (inactive) | GI50 [1]: 4.72 µM (inactive) | GI50 [2]: 11.7 µM (inactive) | GI50 [3]: 2.31 µM (inactive) | GI50 [4]: 2.37 µM (inactive) | GI50 [5]: 3.79 µM (inactive) | GI50 [6]: 6.52 µM (inactive) | GI50 [8]: 1.07 µM (active) | GI50 [9]: 5.85 µM (inactive) | GI50 [10]: 1.81 µM (inactive) | GI50 [11]: 2.69 µM (inactive) | GI50 [12]: 3.98 µM (inactive) | GI50 [13]: 13.6 µM (inactive) | GI50 [14]: 1.9 µM (inactive) | GI50 [15]: < 0.01 µM (active) | GI50 [16]: 2.82 µM (inactive) | GI50 [17]: 17.5 µM (inactive) | GI50 [55]: 16.1 µM (inactive) | GI50 [18]: 3.03 µM (inactive) | GI50 [19]: 10.4 µM (inactive) | GI50 [20]: 10.6 µM (inactive) | GI50 [21]: 2.2 µM (inactive) | GI50 [56]: 2.14 µM (inactive) | GI50 [23]: 2.43 µM (inactive) | GI50 [24]: 4.85 µM (inactive) | GI50 [25]: 3.44 µM (inactive) | GI50 [26]: 5.47 µM (inactive) | GI50 [27]: 2.43 µM (inactive) | GI50 [28]: 12.6 µM (inactive) | GI50 [29]: 3.33 µM (inactive) | GI50 [30]: 3.65 µM (inactive) | GI50 [31]: 3.37 µM (inactive) | GI50 [32]: 3.17 µM (inactive) | GI50 [33]: 6.32 µM (inactive) | GI50 [35]: 6.1 µM (inactive) | GI50 [37]: 10.3 µM (inactive) | GI50 [38]: 2.58 µM (inactive) | GI50 [39]: 2.41 µM (inactive) | GI50 [40]: 11.3 µM (inactive) | GI50 [41]: 7.08 µM (inactive) | GI50 [42]: 2.25 µM (inactive) | GI50 [43]: 1.95 µM (inactive) | GI50 [44]: 10.6 µM (inactive) | GI50 [45]: 11.9 µM (inactive) | GI50 [46]: 5.35 µM (inactive) | GI50 [47]: 1.16 µM (inactive) | GI50 [48]: 2.36 µM (inactive) | GI50 [49]: 2.2 µM | GI50 [50]: 13.4 µM (inactive) | GI50 [51]: 2.03 µM (inactive) | GI50 [52]: 1.81 µM (inactive) | GI50 [57]: 5.18 µM (inactive) | GI50 [53]: 11.7 µM (inactive)

Cc1nn(C(=O)Cc2ccccc2)c2c1C(c1ccc(N(C)C)cc1)SC(=N)N2 (stereo unspecified)
GI50 [54]: > 100 µM (inactive) | GI50 [2]: 38.3 µM (inactive) | GI50 [4]: > 100 µM (inactive) | GI50 [5]: > 100 µM (inactive) | GI50 [6]: > 100 µM (inactive) | GI50 [9]: > 100 µM (inactive) | GI50 [11]: > 100 µM (inactive) | GI50 [12]: > 100 µM (inactive) | GI50 [13]: > 100 µM (inactive) | GI50 [14]: 45.6 µM (inactive) | GI50 [16]: > 100 µM (inactive) | GI50 [17]: > 100 µM (inactive) | GI50 [55]: > 100 µM (inactive) | GI50 [18]: > 100 µM (inactive) | GI50 [19]: > 100 µM (inactive) | GI50 [20]: > 100 µM (inactive) | GI50 [56]: > 100 µM (inactive) | GI50 [22]: > 100 µM (inactive) | GI50 [23]: > 100 µM (inactive) | GI50 [24]: > 100 µM (inactive) | GI50 [25]: > 100 µM (inactive) | GI50 [26]: > 100 µM (inactive) | GI50 [27]: > 100 µM (inactive) | GI50 [28]: > 100 µM (inactive) | GI50 [30]: > 100 µM (inactive) | GI50 [31]: 48.8 µM (inactive) | GI50 [32]: > 100 µM (inactive) | GI50 [33]: > 100 µM (inactive) | GI50 [34]: 12.4 µM (inactive) | GI50 [35]: > 100 µM (inactive) | GI50 [36]: > 100 µM (inactive) | GI50 [37]: > 100 µM (inactive) | GI50 [38]: > 100 µM (inactive) | GI50 [39]: > 100 µM (inactive) | GI50 [40]: > 100 µM (inactive) | GI50 [42]: 24.5 µM (inactive) | GI50 [43]: 46.1 µM (inactive) | GI50 [44]: 76.6 µM (inactive) | GI50 [58]: > 100 µM (inactive) | GI50 [45]: > 100 µM (inactive) | GI50 [59]: > 100 µM (inactive) | GI50 [46]: > 100 µM (inactive) | GI50 [47]: > 100 µM (inactive) | GI50 [48]: > 100 µM (inactive) | GI50 [49]: > 100 µM | GI50 [50]: > 100 µM (inactive) | GI50 [51]: > 100 µM (inactive) | GI50 [52]: > 100 µM (inactive) | GI50 [57]: > 100 µM (inactive) | GI50 [53]: 51.5 µM (inactive)
